Test results from US20230095530A1, “COMPOUND USED AS RET KINASE INHIBITOR AND APPLICATION THEREOF” (TYK Medicines, Inc., priority 2019, published 2023).
Like-named read-outs stand apart in the source and are kept apart here.

Experiments:
wild-type RET kinase = wild-type RET kinase (Homo sapiens, UniProt P07949); assay: Kinase activity assay against wild-type RET at ATP Km (33P-ATP, filter-binding); type: biochemical; settings: ATP Km concentration, 10 concentrations
Experimental: […]. The biological activity screening of the compounds will be determined repeatedly at 10 concentrations.
Each sample was prepared into a solution with a concentration of 10 mM.
The test compound was dissolved in 100% dimethyl sulfoxide to a specific concentration. Integra Viaflo Assist was used to assist DMSO for (continuous) dilution.
Adding kinase into the newly prepared basic reaction buffer:
Adding any desired cofactors to the substrate solution;
Adding wild-type RET kinase into the substrate solution and gently mixing;
Using Acoustic technology (Echo 550; nanoliter range) to feed the compounds in 100% of dimethyl sulfoxide into the kinase reaction mixture and incubated at room temperature for 20 minutes.
Adding 33P-ATP (specific activity 10 Ci/1) into the reaction mixture to start the reaction.
Incubated at room temperature for 2 hours;
Radioactivity was detected by filter-binding method;
Kinase activity data was expressed as the percentage of remaining kinase activity in the test sample compared to the vehicle (dimethyl sulfoxide) reaction. Prism (GRAPHPAD software) was used to obtain IC50 value and curve-fitting.

[1] = test system: tumor patients with RET fusion and mutation; settings: phase I, cited from earlier work

wild-type RET kinase, sequence (P07949 29-1114): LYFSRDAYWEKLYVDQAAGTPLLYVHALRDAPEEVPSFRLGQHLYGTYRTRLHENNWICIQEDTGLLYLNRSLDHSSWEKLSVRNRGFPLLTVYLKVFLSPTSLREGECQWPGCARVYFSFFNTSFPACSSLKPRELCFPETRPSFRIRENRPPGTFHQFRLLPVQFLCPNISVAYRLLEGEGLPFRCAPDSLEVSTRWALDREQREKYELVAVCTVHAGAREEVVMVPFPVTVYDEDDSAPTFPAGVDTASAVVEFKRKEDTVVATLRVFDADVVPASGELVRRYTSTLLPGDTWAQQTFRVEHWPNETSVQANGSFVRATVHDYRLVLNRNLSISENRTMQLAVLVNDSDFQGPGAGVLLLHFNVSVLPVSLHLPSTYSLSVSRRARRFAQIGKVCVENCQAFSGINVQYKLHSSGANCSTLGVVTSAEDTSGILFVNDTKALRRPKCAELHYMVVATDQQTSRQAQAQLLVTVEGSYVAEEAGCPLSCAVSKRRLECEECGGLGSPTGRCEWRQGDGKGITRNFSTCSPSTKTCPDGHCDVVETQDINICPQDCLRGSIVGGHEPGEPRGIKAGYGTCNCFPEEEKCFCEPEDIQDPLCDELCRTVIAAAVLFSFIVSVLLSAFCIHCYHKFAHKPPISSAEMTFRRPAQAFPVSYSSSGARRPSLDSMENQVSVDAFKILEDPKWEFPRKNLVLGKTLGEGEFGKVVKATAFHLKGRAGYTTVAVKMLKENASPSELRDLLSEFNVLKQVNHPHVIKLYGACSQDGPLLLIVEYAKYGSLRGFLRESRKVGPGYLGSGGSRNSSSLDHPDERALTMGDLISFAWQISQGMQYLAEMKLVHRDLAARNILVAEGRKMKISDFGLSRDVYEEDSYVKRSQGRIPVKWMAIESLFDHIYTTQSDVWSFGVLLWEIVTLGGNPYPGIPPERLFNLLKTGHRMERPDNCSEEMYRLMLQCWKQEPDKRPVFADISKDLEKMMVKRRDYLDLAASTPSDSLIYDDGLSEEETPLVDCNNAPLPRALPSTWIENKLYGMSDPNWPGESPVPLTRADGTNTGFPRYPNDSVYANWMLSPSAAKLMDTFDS

IC50 (wild-type RET kinase) [nM] | SMILES | other results
27.3 | COc1ccc(CN2CCCC(n3ccc(-c4cc(-c5cnn(C)c5)cn5ncc(C#N)c45)cc3=O)C2)cn1 (stereo not drawn) [Compound C7] | –
40.7 | COc1ccc(CN2CCC(n3ccc(-c4cc(-c5cnn(C)c5)cn5ncc(C#N)c45)cc3=O)C2)cn1 (stereo not drawn) [Compound C5] | –
– | CO[C@]1(C(=O)N[C@@H](C)c2ccc(-n3cc(F)cn3)nc2)CC[C@H](c2nc(C)cc(Nc3cc(C)[nH]n3)n2)CC1 [BLU-667] | ORR ([1]; patients with medullary thyroid carcinoma): 40%; ORR ([1]; patients with non-small cell lung cancer): 50%; overall remission rate (ORR) ([1]; tumor patients with RET fusion and mutation): 45%
226 | COc1ccc(CN2C3CC2CN(c2ccc(-c4cc(OCC(C)(C)O)cc5nccc(C#N)c45)cn2)C3)cn1 [Compound C3] | –
58 | COc1ccc(CN2CCC(n3ccc(-c4cc(-c5cnn(C)c5)cn5ncc(C#N)c45)cc3=O)CC2)cn1 [Compound C8] | –
3.52 | COc1ccc(CN2CCCC(n3cc(-c4cc(-c5cnn(C)c5)cn5ncc(C#N)c45)cn3)C2)cn1 (stereo not drawn) [Compound C2] | –
1.56 | COc1ccc(CN2CCC(n3cc(-c4cc(-c5cnn(C)c5)cn5ncc(C#N)c45)cn3)C2)cn1 (stereo not drawn) [Compound C1] | –
